These results are taken from US20240287614A1, “RECIPROCAL MICRORNA-MRNA PAIRINGS AS BIOMARKERS AND THERAPEUTIC TARGETS IN CANCER” (UNIVERSITY OF MARYLAND, EASTERN SHORE, priority 2023, published 2024).

The subject of data set [1] is mTOR and pmTOR. Description: Western blot of mTOR and pmTOR in cytoplasmic and nuclear fractions of colon, breast and lung cancer cells. The format is cell-based, human. To be noted: breast, lung cancer cells. The text has this:
(§1) The human cell lines used in the study included: 22Rv1, LNCaP, PC-3, RC77 T/E and MDA PCa 2b (prostate cancer cell lines), MDA MB 231 and MCF-7 (breast cancer cell lines), HT-29 and SW620 (colon cancer cell lines), A549 and H1299 (lung cancer cell lines). RWPE-1, HMEC, FHC, and BEAS-2B were used as normal control cell lines for prostate, breast, colon, and lung, respectively. Note that 22Rv1 is a castration-resistant […] prostate cancer cell line, while LNCaP and PC-3 were derived from lymph node and bone metastasis of […] prostate cancer patients, respectively. RC77 T/E was derived from a primary prostate cancer patient, and MDA PCa 2b was derived from bone metastasis of an prostate cancer patient. The cell lines described were used as in vitro cell models to evaluate the functional roles of miR-99b-5p/MTOR pairing in the […] prostate cancer, African American prostate cancer and solid tumors in general. The cells were grown in specific cell culture media described as follows: 22Rv1, LNCaP, MCF-7 and H1299 were cultured in RPMI-1640 with 10% fetal bovine serum (FBS), PC-3, A549 and FHC were cultured in DMEM with 10% FBS, RC77 T/E was cultured in Keratinocyte SFM with human recombinant epidermal growth factor (EGF) and bovine pituitary extract (BPE), MDA PCa 2b were cultured in BRFF-HPC1 with 20% FBS, HT-29 was cultured in McCory's with 10% FBS, SW620 and MDA MB 231 were cultured in L-15 with 10% FBS, HMEC was cultured in mammary epithelial cell basal medium with supplements, and BEAS-2B was cultured in BEBM base medium with BEBM supplement kit. Cells were maintained at 37° C. in a 5% CO2 incubator.
(§2) The 22Rv1, LNCaP, PC-3, MDA PCa 2b, MCF7, H1299, A549, HT-29, SW620, MDA MB-231, HMEC and BEAS-2B cells were seeded at a density of 3×10^5 cells/well in 6-well plates. RC77 T/E cells were seeded at a density of 5×10^5 cells/well in 6-well plates. The cells were grown for 24 h and then transfected with nonsense/scrambled RNA (NS) and miR-99b-5p mimic (Ambion) using DharmaFECT4 transfection reagent (Dharmacon). After 24 h, fresh media were applied to replace the transfection reagent-containing media, then the cells were incubated for an additional 24 h.
(§3) The total proteins were extracted using M-PER extraction reagent with protease and phosphatase inhibitor cocktail (Thermo Fisher Scientific) according to manufacturer's protocol. […] Equal amounts of proteins were used based on the quantification using BCA assay kit (Thermo Fisher Scientific), and the samples were separated by electrophoresis using NuPAGE 4-12% or 8% Bis-Tris gels (Invitrogen). […] The results were analyzed with SuperSignal ECL substrates (Thermo Fisher Scientific) and a ChemiDoc XRS system (Bio-Rad). […]
A general note: A western blot detects proteins with antibodies after separation by electrophoresis.

The subject of data set [2] is AR. Description: Western blot of AR in total, cytoplasmic and nuclear protein fractions. It is filed as cell-based, human.
Source text: as §1, §2, §3

“miR-99b-5p mimic: miRNA mimic of miR-99b-5p (SEQ ID NO: 2, CACCCGUAGAACCGACCUUGCG), purchased from Ambion (listed as RNA, chemistry not given here; listed as Homo sapiens)”: in data set [1] (miR-99b-5p vs NS transfected), the “nuclear mTOR expression (Western blot)” value is “significant decrease”; the “nuclear pmTOR expression (Western blot)” value is reported as “significant decrease”; the “total mTOR (combined cytoplasmic and nuclear mTOR, Western blot)” value is given as “generalized reduction”. Moreover, in data set [1] (upon miR-99b-5p transfection), the “cytoplasmic mTOR (Western blot)” value is reported as “slight to no decrease”. Moreover, the “cytoplasmic AR (Western blot)” value in data set [2] (22Rv1 and MDA PCa 2b cells) was “slight to moderate decrease”. The “AR expression levels, total lysates (Western blot)” value in data set [2] (MCF-7, 22Rv1, MDA PCa 2b, mimic vs NS) is “significantly reduced”. Moreover, the “nuclear AR protein levels (Western blot)” value in data set [2] (MCF-7, 22Rv1, and MDA PCa 2b cells) was “significantly decreased”. The “cytoplasmic AR (Western blot)” value in data set [2] (MCF-7 cells) is given as “no change”.
